Holding throughout (experiment): microscale thermophoresis
Common to all, as to format: binding
(In general: Microscale thermophoresis detects binding through changes in fluorescence in a small temperature gradient.)

The target of experiment [1] is T1, orotate phosphoribosyltransferase (PyrE) (Escherichia coli, UniProt P0A7E3).
T1 sequence (P0A7E3 2-213): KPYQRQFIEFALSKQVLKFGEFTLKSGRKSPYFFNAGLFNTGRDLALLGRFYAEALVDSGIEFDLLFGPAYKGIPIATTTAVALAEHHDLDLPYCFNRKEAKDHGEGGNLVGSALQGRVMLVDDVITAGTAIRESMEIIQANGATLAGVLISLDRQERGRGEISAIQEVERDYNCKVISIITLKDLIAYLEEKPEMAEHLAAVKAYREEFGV

Experiment [2] deals with T2, FabF (Escherichia coli, UniProt P0AAI5).
T2 sequence (P0AAI5 2-413): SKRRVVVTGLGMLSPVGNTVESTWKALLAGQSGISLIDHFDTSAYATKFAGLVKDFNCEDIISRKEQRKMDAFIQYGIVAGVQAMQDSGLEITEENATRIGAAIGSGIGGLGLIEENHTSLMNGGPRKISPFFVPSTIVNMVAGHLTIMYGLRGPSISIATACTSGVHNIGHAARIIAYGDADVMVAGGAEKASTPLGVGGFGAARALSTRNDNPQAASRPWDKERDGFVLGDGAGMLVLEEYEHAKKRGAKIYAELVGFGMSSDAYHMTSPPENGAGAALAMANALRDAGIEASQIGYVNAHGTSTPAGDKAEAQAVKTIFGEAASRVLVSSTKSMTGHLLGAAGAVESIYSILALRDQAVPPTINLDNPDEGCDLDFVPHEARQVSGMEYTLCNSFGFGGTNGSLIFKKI

Experiment [3] addresses T1, orotate phosphoribosyltransferase (PyrE). This is another data set of the same source.

Like-named read-outs stand apart in the source and are kept apart here. Where a SMILES comes first, the peptide text is derived from it.

For orientation: Kd means the equilibrium constant for the complex coming apart.

In turn, `O=P(O)(O)OC[C@H]1O[C@H](OP(=O)(O)OP(=O)(O)O)[C@H](O)[C@@H]1O` [PRPP] had a Kd in experiment [1] of 8.21 µM.

In the case of `CC(C)CC(NC(=O)C(N)C(C)C)C(=O)O` (stereo not drawn) [Val-Leu] (H-Val-Leu-OH; configuration not given here), the Kd in experiment [2] is 12 to 14 µM.

`Cc1cc2nc3[nH]c(=O)[nH]c(=O)c3nc2cc1C` [lumichrome] showed a Kd in experiment [3] of 90.3 µM.
